Assay results reported in patent US20110301169A1, “Therapies for Treating Cancer Using Combinations of COX-2 Inhibitors and Antimetabolites” (priority 2007, published 2011).

What was measured:
HER2 [ErbB2] = HER2 [ErbB2] (Homo sapiens, UniProt P04626); settings: cited from earlier work
[1] = test system: human breast cancer cells (SK-BR-3); test: SK-BR-3 model, tumor volume; format: in vivo, nude mice; settings: COX-2 inhibitor in the diet, trastuzumab intravenously
Method: Mice are injected subcutaneously in the left paw (1×10^6 tumor cells suspended in 30% Matrigel) and tumor volume is evaluated using a phlethysmometer twice a week for 30-60 days. Implantation of human breast cancer cells (SK-BR-3) into nude mice produces tumors that will reach 0.6-2 ml between 30-50 days. […] The data is expressed as the mean+/−SEM. Student's and Mann-Whitney tests are used to assess differences between means using the InStat software package.
The efficacy of both agents are determined by measuring tumor volume.
B. In a second assay, mice injected with SK-BR-3 cancer cells are then treated with 5-FU on days 12 through 15. […] The efficacy of both agents are determined by measuring tumor volume.

BT474 tumor = test: BT474 model, tumor growth delay (Example 9); format: in vivo, Female SCID mice; settings: Groups 3, 4: 30 mg/kg, po, qd to end
Method: Female SCID mice were injected subcutaneously in the flank (1 mm^3 BT474 tumor) and tumor volume was evaluated using a caliper twice a week for up to 90 days, longer for responders. Upon reaching an average tumor size of 100-200 mg the treatment was begun. […] The endpoint for the study was when tumor volume reached 0.75 gins or 90 days, which ever came first.

[2] = human, in vivo
[3] = Oral pharmacokinetics in dogs; format: in vivo; settings: dog, plasma, 5 mg/kg, read-out: elimination half life (t1/2)
Method: (§1) Peak plasma concentrations were achieved between 1 and 3 hours after a dose of 5 mg/kg.

[4] = Oral pharmacokinetics in rodents; format: in vivo, mice, rats
Method: as §1

[5] = Oral pharmacokinetics in monkeys; format: in vivo; settings: monkey, plasma, 5 mg/kg, read-out: elimination half life (t1/2) (converted)
Method: as §1

clinical = settings: human, in vivo
Method: as §1

[6] = test system: MX1 (ER−, erbB2−) breast carcinoma; test: MX1 human breast carcinoma xenograft, tumor growth delay (Example 11); format: in vivo, female athymic nude mice; settings: alone
Method: The compound was administered orally on a continuous daily regimen in female athymic nude mice bearing established sc-implanted xenografts.

[7] = third assay (C): 5-FU i.p. 50 mg/kg on days 14 through 17

Sequence of HER2 [ErbB2] (P04626 23-1255): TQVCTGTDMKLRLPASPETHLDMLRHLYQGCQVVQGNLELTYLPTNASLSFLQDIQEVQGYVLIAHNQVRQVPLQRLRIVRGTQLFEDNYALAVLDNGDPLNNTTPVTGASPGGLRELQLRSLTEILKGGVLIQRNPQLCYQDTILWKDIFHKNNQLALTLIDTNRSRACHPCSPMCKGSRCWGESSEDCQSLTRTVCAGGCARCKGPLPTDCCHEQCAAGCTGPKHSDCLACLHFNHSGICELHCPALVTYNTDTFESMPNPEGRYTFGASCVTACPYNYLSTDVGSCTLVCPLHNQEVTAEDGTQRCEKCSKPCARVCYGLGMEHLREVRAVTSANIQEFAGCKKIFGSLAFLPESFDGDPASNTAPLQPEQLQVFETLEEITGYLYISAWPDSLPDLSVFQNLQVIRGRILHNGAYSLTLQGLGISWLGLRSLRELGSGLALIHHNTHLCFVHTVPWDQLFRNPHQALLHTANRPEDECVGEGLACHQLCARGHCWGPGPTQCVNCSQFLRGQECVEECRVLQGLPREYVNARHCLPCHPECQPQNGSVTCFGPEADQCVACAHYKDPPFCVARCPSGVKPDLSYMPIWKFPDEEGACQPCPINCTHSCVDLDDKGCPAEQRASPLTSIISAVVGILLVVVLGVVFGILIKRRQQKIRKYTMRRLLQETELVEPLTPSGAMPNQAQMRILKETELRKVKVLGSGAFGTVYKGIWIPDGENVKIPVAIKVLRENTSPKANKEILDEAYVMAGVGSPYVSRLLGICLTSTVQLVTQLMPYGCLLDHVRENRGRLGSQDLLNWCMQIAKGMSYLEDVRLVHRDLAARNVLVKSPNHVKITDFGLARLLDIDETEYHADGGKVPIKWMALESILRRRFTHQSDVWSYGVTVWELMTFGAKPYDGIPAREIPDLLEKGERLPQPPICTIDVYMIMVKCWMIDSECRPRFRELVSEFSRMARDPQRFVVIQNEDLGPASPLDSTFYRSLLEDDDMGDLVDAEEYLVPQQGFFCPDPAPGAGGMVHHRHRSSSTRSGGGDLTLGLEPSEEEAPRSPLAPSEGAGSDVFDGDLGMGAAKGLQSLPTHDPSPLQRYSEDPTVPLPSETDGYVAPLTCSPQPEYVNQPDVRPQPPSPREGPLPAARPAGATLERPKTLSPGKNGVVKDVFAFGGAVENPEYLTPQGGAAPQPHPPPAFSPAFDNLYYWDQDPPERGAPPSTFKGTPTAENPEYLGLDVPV

## COCC(=O)NC/C=C/c1ccc2ncnc(Nc3ccc(Oc4ccc(C)nc4)c(C)c3)c2c1 [CP-724,714]
HER2 [ErbB2]
  Ki: 7 nM

## Cc1onc(-c2ccccc2)c1-c1ccc(S(N)(=O)=O)cc1 [valdecoxib]
[1]; [7]
  reduction in tumor volume: 69%

## Cc1ccc(-c2cc(C(F)(F)F)nn2-c2ccc(S(N)(=O)=O)cc2)cc1 [celecoxib]
BT474 tumor
  % tumor growth delay: −28%
  Median Total Time to Endpoint: 27.5 days
BT474 tumor; difference in median time to endpoint
  Difference from control: −10.7

## O=c1[nH]cc(F)c(=O)[nH]1 [5-FU]
[1]; second assay (B): 5-FU i.p. 50 mg/kg on days 12-15
  reduction in tumor volume: 61%
[1]; [7]
  reduction in tumor volume: 35%

## CCOc1ccc(-c2cc(C)cn2-c2ccc(S(N)(=O)=O)cc2)cc1
[2]
  gastric or duodenal toxicity: no increase in gastric or duodenal toxicity compared to placebo
[3]
  half-life: 4 to 5 h
[4]; mouse, rat, plasma, po, 5 mg/kg, rodents, read-out: elimination half life (t1/2)
  half-life: 4 to 5 h
[4]; rodent, compared with dogs and monkeys
  Oral availability: greatest in rodent
[5]
  half-life: ~2 h
clinical
  half-life: 15 to 18 h

## Nc1nc2[nH]cc(CCc3ccc(C(=O)N[C@@H](CCC(=O)[O-])C(=O)[O-])cc3)c2c(=O)[nH]1.[Na+].[Na+] [pemetrexed]
[6]
  TGD (in words): no TGD
